Experiments:
bed bugs [1] = test: Toxicity and durability of toxicity of undiluted DMSO on filter paper in arenas (Example 1A); type: in vivo
Protocol: 0.1 milliliters of Fisher Biotech Molecular Biology Grade 99.7% DMSO (CAS#67-68-5) was applied to each of five 3.5 cm diameter disks of Fisherbrand Qualitative P8 filter paper. […] The arenas were placed in an incubator set to maintain a temperature of 22° C.
At the end of 24 hours, timed from the initial placement of the bed bugs on the filter papers, all of the arenas were removed from the incubator and opened and the bed bugs were examined. […] The bed bugs in the control jar were all still alive.
Without removing the filter paper, the dead bed bugs in the 5 arenas were removed and replaced by the same number (10) of live bed bugs in each arena. The arenas were again placed in the incubator and re-examined 24 hours later. The replacement bed bugs in the 5 arenas were also all dead.
All of the bed bugs in the control jar were all still alive at the end of the last testing interval.

bed bugs [2] = test: Contact toxicity to bed bugs, general findings in the description; type: in vivo
bed bugs [3] = test: Repellency to bed bugs, general finding; type: in vivo; conditions: with or without additional insecticidal active ingredient, any DMSO concentration
humans and animals = conditions: even when applied directly to a subject's skin; cited from earlier work

| SMILES | bed bug mortality at end of 24 hours (bed bugs [1]; 0.1 mL 99.7% DMSO on 3.5 cm filter paper, 5 arenas, 10 bed bugs each, 22° C., first 24 hours) | mortality at end of each 24 hour interval, three more replications (bed bugs [1]; same filter paper, replications 3 to 5 at 24 hour intervals) | mortality of replacement bed bugs 24 hours later (bed bugs [1]; same filter paper, second 24 hour interval, 10 live bed bugs per arena) | toxicity to bed bugs upon contact (bed bugs [2]; DMSO alone, no insecticidal active ingredient or synergist) | repellency effects (bed bugs [3]) | toxicity in exposure to humans and animals (humans and animals) | toxicity-enhancing characteristics (bed bugs [2]; as penetration enhancer in insecticidal formulations) |
| --- | --- | --- | --- | --- | --- | --- | --- |
| C[S+](C)[O-] [DMSO, dimethyl sulfoxide] | All of the bed bugs in all 5 of the jars containing DMSO treated filter paper were dead | all bed bugs found to be dead | also all dead | highly toxic to bed bugs upon contact | not accompanied by any repellency effects | low toxicity |  |
| CCCCCCCCCCCCN1CCCCCC1=O [laurocapram, reference compound] |  |  |  |  |  |  | exhibits toxicity-enhancing characteristics similar to DMSO |

From patent US9763443B2, “Control of bed bugs” (Ensystex Inc., priority 2011, dated 2017)
